The values below come from patent publication US20040037806A1, “Aldosterone blocker therapy to prevent or treat inflammation-related disorders” (Pharmacia Corporation, priority 2002, published 2004).

Common to all, as to type: in vivo, rat
The nature of test [1]: Assay A: angiotensin II infusion model, systolic blood pressure by tail-cuff. To be noted: Wistar rats, 1% NaCl to drink, angiotensin II 25 ng/min sc, 4 weeks; eplerenone 100 mpk; aldosterone given to adrenalectomized, dexamethasone-treated rats.
The subject of a further test is osteopontin. The test is described as follows: Assay C: Osteopontin mRNA, TaqMan. Conditions: 7, 14, 30 days; aldosterone+salt alone or with eplerenone 100 mg/kg/day. As to the method:
The procedure of Assay B was expanded upon in a further study. […] Myocardial tissue from animals in each treatment group was examined after 7, 14, or 30 days of treatment.
(§1) Potassium chloride supplementation was added to the saline solution in order to prevent the potential hypokalemia associated with aldosterone excess.
Treatment At the time of the surgery, an Alzet 2002 osmotic minipump (Alza Corp., Palo Alto, Calif.) containing either vehicle (9% ethanol/87% propylene glycol/4% dH2O) or 1.0 mg/mL d-aldosterone (Sigma Chemical, St. Louis, Mo.) was inserted subcutaneously at the nape of the neck. Aldosterone was administered at a dose of 0.75 µg/hour. […]
The fluorogenic 5′-nuclease assay (TaqMan PCR) using Applied Biosystems' 7700 Sequence Detection System (Applied Biosystems, Foster City, Calif.) allowed for real time detection/quantitation of a specific gene by monitoring the increase in fluorescence of a gene-specific, dye-labeled oligonucleotide probe. […] When the probe was annealed to the target gene, fluorescence of 6FAM was prevented by the close proximity of TAMRA. The exonuclease activity of Taq polymerase released the dyes from the oligonucleotide probe by displacing the probe from the target sequence resulting in fluorescence excitation in direct proportion to the amount of target message present. […]

In test [2] the test system is Osteopontin, ED-1, CD-3, ICAM-1, VCAM-1. The experiment in a line: Assay C: immunohistochemistry of myocardial tissue. Conditions: aldosterone+salt alone or with eplerenone 100 mg/kg/day. How it is done:
The procedure of Assay B was expanded upon in a further study. […] Myocardial tissue from animals in each treatment group was examined after 7, 14, or 30 days of treatment. […] Lesions were preceded by the expression and progressive upregulation of proinflammatory molecules.
as §1
Treatment At the time of the surgery, an Alzet 2002 osmotic minipump (Alza Corp., Palo Alto, Calif.) containing either vehicle (9% ethanol/87% propylene glycol/4% dH2O) or 1.0 mg/mL d-aldosterone (Sigma Chemical, St. Louis, Mo.) was inserted subcutaneously at the nape of the neck. Aldosterone was administered at a dose of 0.75 µg/hour. […] Animals were sacrificed from each group (n=8-13) after 7, 14, or 30 days of treatment.
Five μm sections were deparaffinized in xylene (two, 5-10 min incubations) and rehydrated by 3 min incubations in ethanol as follows: two incubations in 100% ethanol followed by two incubations in 95% alcohol and one incubation in 70% alcohol. Once hydrated, sections were rinsed in tap water for 1 min and distilled water for 1 min. Endogenous peroxide activity was blocked by placing slides in 3.0% H2O2 for 15 min followed by a 5 min rinse in distilled water. Slides were processed for antigen retrieval using citric acid, pH6.0. […]

“Also recorded” adds a separate entry of the source.

In the case of `C[C@]12CCC(=O)C=C1CC[C@@H]1[C@@H]2[C@@H](O)C[C@]2(C=O)[C@@H](C(=O)CO)CC[C@@H]12` [aldosterone], the Systolic blood pressure result in test [1] was “increased blood pressure”. Moreover, the “Osteopontin mRNA expression in myocardium” value in the test on osteopontin is “markedly upregulated”. In addition, the “Immunohistochemical staining of marker proteins in myocardial tissue” value in test [2] is reported as “Significant expression of osteopontin”.

For the molecule `COC(=O)[C@@H]1CC2=CC(=O)CC[C@]2(C)[C@@]23O[C@@H]2C[C@@]2(C)[C@@H](CC[C@@]24CCC(=O)O4)[C@H]13` [eplerenone], in test [1], the Systolic blood pressure entry is on record as “Neither eplerenone nor adrenalectomy reduced blood pressure”. Besides, the “Osteopontin mRNA expression in myocardium” value in the test with osteopontin is “significantly reduced; also recorded: inhibition of early time-course expression of myocardial osteopontin”. For the same molecule, the “Immunohistochemical staining of marker proteins in myocardial tissue” value in test [2] was “markedly blunted”.
